Measurements taken from patent US20130046283A1, “METHODS AND INTRAVASCULAR TREATMENT DEVICES FOR TREATMENT OF ATHEROSCLEROSIS” (Medtronic Vascular, Inc., priority 2011, published 2013).
“Also recorded” adds a separate entry of the source.

Tests used:
Format in all cases: cell-based
CTGF [1] = assay: qRT-PCR CTGF gene expression in drug-treated SFA smooth muscle cells; conditions: qRT-PCR calibrated against unstimulated control, FIG. 13C
Experimental: (§1) FIG. 13 depicts effects of paclitaxel on cellular morphology, gene and protein expression. (A and B) SFA smooth muscle cells from normal donor tissue were treated with Paclitaxel, Everolimus or Sirolimus. Gene expression levels were determined by qRT-PCR for each drug arm calibrated against unstimulated control for (A) CDKN1A and (C) CTGF. (B) SMCs were exposed to Sirolimus or Paclitaxel, fixed and stained with Actin (red) and Ki67 (green). (D) SFA derived smooth muscle cells were treated with Paclitaxel, Everolimus or Sirolimus then stimulated with Colchicinne (CTGF a) or Angiotensin II (CTGF b). Protein levels were detected by western blot using antibodies against CTGF and beta actin. One representative blot of three replicates shown.
(§2) Obtaining samples from SFA arteries allowed us to generate SFA derived-smooth muscle cells and to examine the expression of genes of interest as ide12tified in the disease atherectomy samples. In particularly we investigated the transcriptional response to anti-proliferative drugs, e.g. paclitaxel and drugs from the limus family such as sirolimus, everolimus or zotarolimus. These drugs are currently employed in combination devices indicated for the treatment of coronary and peripheral disease, including drug eluting stents and drug eluting balloons. […]

Endothelin-1 = assay: qRT-PCR Endothelin-1 gene expression in SFA smooth muscle cells, drug then inflammatory cocktail; conditions: quiescent SFA smooth muscle cells, FIG. 14D
Experimental: (§3) FIG. 14 depicts differential effect of paclitaxel versus the Limus family of drugs on expression of cell cycle, proliferation and ECM target genes in SFA smooth muscle cells. Quiescent SFA smooth muscle cells were treated with of Paclitaxel, Zotarolimus or Sirolimus then stimulated with inflammatory cocktail consisting of FBS, TGF Beta and 11—1 beta. Relative gene expression levels were determined by qRT-PCR for each drug treated arm as calibrated against the unstimulated baseline control for (A) BTG2, (B) KLF4, (C) PEDF, (D) Endothelin-1, (E) Thrombospondin-1, and (F) Thrombospondin-3.
(§4) In a similar manner, the expression of Thrombospondin-1 and Thrombospondin-3 is inhibited by paciltaxel but not by sirolimus and zotarolimus. Taken together the data with regards to the differential effects of commercially employed, anti-proliferative drugs, such as paciltaxel and drugs of the limus family, on the expression of SFA disease target genes can highlight/point to wards the most beneficial therapeutic mode of application and treatment.

SFA smooth muscle cells = assay: Actin and Ki67 staining of SMCs exposed to drug (cellular morphology); conditions: SMCs fixed and stained with Actin and Ki67; FIG. 13B
Experimental: as §1, §2

CDKN1A = assay: qRT-PCR CDKN1A gene expression in drug-treated SFA smooth muscle cells; conditions: SFA smooth muscle cells from normal donor tissue; qRT-PCR calibrated against unstimulated control; FIG. 13A
Experimental: as §1, §2

Thrombospondin-1 = assay: qRT-PCR Thrombospondin-1 gene expression in SFA smooth muscle cells, drug then inflammatory cocktail; conditions: quiescent SFA smooth muscle cells, FIG. 14E
Experimental: as §3, §4

BTG2 = assay: qRT-PCR BTG2 gene expression in SFA smooth muscle cells, drug then inflammatory cocktail; conditions: quiescent SFA smooth muscle cells, drug then FBS, TGF Beta and IL-1 beta cocktail; calibrated against unstimulated baseline; FIG. 14A
Experimental: as §3
(§5) Since the limus drugs have been known to affect the signaling via their effect on cell cycle inhibitors (CDKN1A and CDKN1 B), we next studied their effects on the pertinent proliferative disease targets identified in this study. Specifically, we looked at BTG2, KLF4 and PEDF (FIGS. 14A, 14B, and 14C, respectively).

Thrombospondin-3 = assay: qRT-PCR Thrombospondin-3 gene expression in SFA smooth muscle cells, drug then inflammatory cocktail; conditions: quiescent SFA smooth muscle cells, FIG. 14F
Experimental: as §3, §4

KLF4 = assay: qRT-PCR KLF4 gene expression in SFA smooth muscle cells, drug then inflammatory cocktail; conditions: quiescent SFA smooth muscle cells, drug then FBS, TGF Beta and IL-1 beta cocktail; calibrated against unstimulated baseline; FIG. 14B
Experimental: as §3, §5

CTGF [2] = assay: Western blot of CTGF protein in drug-treated SFA derived smooth muscle cells; conditions: drug then Colchicinne or Angiotensin II stimulation, FIG. 13D
Experimental: as §1, §2

PEDF = assay: qRT-PCR PEDF gene expression in SFA smooth muscle cells, drug then inflammatory cocktail; conditions: quiescent SFA smooth muscle cells, drug then FBS, TGF Beta and IL-1 beta cocktail; calibrated against unstimulated baseline; FIG. 14C
Experimental: as §3, §5

| SMILES | expression of CTGF (gene) (CTGF [1]) | expression of Endothelin-1 (Endothelin-1) | expression of Endothelin-1 (Endothelin-1; listed as paciltaxel) | effect on cellular cytoskeleton / morphology (SFA smooth muscle cells) | CDKN1A expression (CDKN1A) | expression of Thrombospondin-1 (Thrombospondin-1) | expression of Thrombospondin-1 (Thrombospondin-1; listed as paciltaxel) | expression of BTG2 (BTG2) | expression of Thrombospondin-3 (Thrombospondin-3) | expression of Thrombospondin-3 (Thrombospondin-3; listed as paciltaxel) | expression of KLF4 (KLF4) | CTGF protein levels (CTGF [2]) | expression of PEDF (PEDF) |
| --- | --- | --- | --- | --- | --- | --- | --- | --- | --- | --- | --- | --- | --- |
| CC(=O)O[C@H]1C(=O)[C@@]2(C)[C@H]([C@H](OC(=O)c3ccccc3)[C@]3(O)C[C@H](OC(=O)[C@H](O)[C@@H](NC(=O)c4ccccc4)c4ccccc4)C(C)=C1C3(C)C)[C@]1(OC(C)=O)CO[C@@H]1C[C@@H]2O [Paclitaxel] | substantial down regulation; also recorded: substantially down regulated | substantially down regulated | slightly inhibited | disrupting cellular cytoskeleton | does not affect | substantially down regulated | inhibited | up regulated | substantially down regulated | inhibited | up regulated | reduced | up regulated |
| CO[C@H]1C[C@@H]2CC[C@@H](C)[C@@](O)(O2)C(=O)C(=O)N2CCCC[C@H]2C(=O)O[C@H]([C@H](C)C[C@@H]2CC[C@@H](OCCO)[C@H](OC)C2)CC(=O)[C@H](C)/C=C(\C)[C@@H](O)[C@@H](OC)C(=O)[C@H](C)C[C@H](C)/C=C/C=C/C=C/1C [everolimus] | – | – | – | – | up regulating | – | – | – | – | – | – | – | – |
| CO[C@H]1C[C@@H]2CC[C@@H](C)[C@@](O)(O2)C(=O)C(=O)N2CCCC[C@H]2C(=O)O[C@H]([C@H](C)C[C@@H]2CC[C@H](n3cnnn3)[C@H](OC)C2)CC(=O)[C@H](C)/C=C(\C)[C@@H](O)[C@@H](OC)C(=O)[C@H](C)C[C@H](C)/C=C/C=C/C=C/1C [zotarolimus] | – | substantially upregulated | – | – | – | – | – | induced the expression | – | – | induced the expression | – | – |
